Measured values reported in PubChem BioAssay (NCI).
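48-hour exposure; five concentrations; linearly interpolated endpoints. TGI denotes the concentration required for complete inhibition of growth.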 Where a SMILES comes first, the peptide text is derived from it. Bridges are numbered along the chain shown (N, C = ends). [ ]: non-standard residue; d: D form. The star is where a group is joined. ξ: configuration not given here. PhAc = O=C(Cc1ccccc1)*; ξP = O=C(O)C1CCCN1

Columns and labels:
Assay in all cases: NCI tumour cell line growth inhibition, 48 h
MDA-MB-231 breast = tested on: MDA-MB-231 breast
SK-MEL-2 melanoma = tested on: SK-MEL-2 melanoma
IGROV1 ovarian = tested on: IGROV1 ovarian
HS 578T breast = tested on: HS 578T breast
NCI-H460 lung = tested on: NCI-H460 lung
MCF7 breast = tested on: MCF7 breast
PC-3 prostate = tested on: PC-3 prostate
ACHN renal = tested on: ACHN renal
LOX IMVI melanoma = tested on: LOX IMVI melanoma
UACC-62 melanoma = tested on: UACC-62 melanoma
SR leukemia = tested on: SR leukemia
SF-268 CNS = tested on: SF-268 CNS
HL-60(TB) leukemia = tested on: HL-60(TB) leukemia
MDA-N = tested on: MDA-N
SN12C renal = tested on: SN12C renal
MDA-MB-435 = tested on: MDA-MB-435
786-0 renal = tested on: 786-0 renal
DU-145 prostate = tested on: DU-145 prostate
UACC-257 melanoma = tested on: UACC-257 melanoma
M14 melanoma = tested on: M14 melanoma
KM12 colon = tested on: KM12 colon
HCT-116 colon = tested on: HCT-116 colon
NCI/ADR-RES ovarian = tested on: NCI/ADR-RES ovarian
CAKI-1 renal = tested on: CAKI-1 renal
SF-295 CNS = tested on: SF-295 CNS
COLO 205 colon = tested on: COLO 205 colon
MOLT-4 leukemia = tested on: MOLT-4 leukemia
HOP-92 NSCLC = tested on: HOP-92 NSCLC
NCI-H23 lung = tested on: NCI-H23 lung
A549 NSCLC = tested on: A549 NSCLC
TK-10 renal = tested on: TK-10 renal
HT29 colon = tested on: HT29 colon
SK-MEL-28 melanoma = tested on: SK-MEL-28 melanoma
OVCAR-4 ovarian = tested on: OVCAR-4 ovarian
SK-OV-3 ovarian = tested on: SK-OV-3 ovarian
SW-620 colon = tested on: SW-620 colon
RXF 393 renal = tested on: RXF 393 renal
MALME-3M melanoma = tested on: MALME-3M melanoma
CCRF-CEM leukemia = tested on: CCRF-CEM leukemia
SK-MEL-5 melanoma = tested on: SK-MEL-5 melanoma
SNB-75 CNS = tested on: SNB-75 CNS
OVCAR-5 ovarian = tested on: OVCAR-5 ovarian
SNB-19 CNS = tested on: SNB-19 CNS
OVCAR-8 ovarian = tested on: OVCAR-8 ovarian
NCI-H226 lung = tested on: NCI-H226 lung
T-47D breast = tested on: T-47D breast
SF-539 CNS = tested on: SF-539 CNS
HOP-62 NSCLC = tested on: HOP-62 NSCLC
EKVX NSCLC = tested on: EKVX NSCLC
A498 renal = tested on: A498 renal
OVCAR-3 ovarian = tested on: OVCAR-3 ovarian
HCT-15 colon = tested on: HCT-15 colon
HCC-2998 colon = tested on: HCC-2998 colon
K-562 leukemia = tested on: K-562 leukemia
RPMI-8226 leukemia = tested on: RPMI-8226 leukemia
BT-549 breast = tested on: BT-549 breast
U251 CNS = tested on: U251 CNS
NCI-H522 lung = tested on: NCI-H522 lung
UO-31 renal = tested on: UO-31 renal

Measured: TGI

O=C(Cc1ccccc1)N[C@@H]1COC(=O)C2CCCN2C(=O)[C@@H]2CCCN2C1=O (stereo partly specified) (PhAc-[dS]-Pro-[ξP]; ester 1-C)
4.79 µM: SNB-75 CNS
not listed: K-562 leukemia | RPMI-8226 leukemia | BT-549 breast | U251 CNS | NCI-H522 lung | UO-31 renal
> 100 µM: all other assays above

O=C1C2=Cc3ccccc3OC2(O)Oc2cc(O)cc(O)c21 (stereo unspecified)
not listed: HS 578T breast | SR leukemia | HL-60(TB) leukemia | SNB-19 CNS | OVCAR-3 ovarian | HCT-15 colon | NCI-H522 lung | UO-31 renal
> 100 µM: all other assays above

Cc1ccc2c(=O)cc(-c3ccc(Cl)cc3)[nH]c2n1
> 27.9 µM: SNB-75 CNS
> 55.4 µM: DU-145 prostate
19.7 µM: MDA-MB-231 breast
26.3 µM: T-47D breast
> 63 µM: HCC-2998 colon
> 49.1 µM: RPMI-8226 leukemia
> 43.3 µM: MOLT-4 leukemia
> 67.7 µM: UACC-257 melanoma
8.8 µM: HL-60(TB) leukemia
> 28.3 µM: NCI/ADR-RES ovarian
> 32.1 µM: HCT-116 colon
29.1 µM: K-562 leukemia
36.8 µM: SF-539 CNS
5.5 µM: MDA-MB-435
> 59.9 µM: U251 CNS
82 µM: NCI-H226 lung
> 94.8 µM: SN12C renal
> 20.8 µM: PC-3 prostate
> 66.8 µM: UO-31 renal
> 30.2 µM: OVCAR-3 ovarian
5.56 µM: MDA-N
> 41.3 µM: HCT-15 colon
> 29.4 µM: HT29 colon
14.6 µM: SK-MEL-5 melanoma
53.8 µM: SF-295 CNS
> 31.3 µM: MALME-3M melanoma
> 65.9 µM: CAKI-1 renal
not listed: COLO 205 colon | BT-549 breast
> 100 µM: all other assays above
